Test system: Enterococcus faecalis type strain NCTC 775
Assay type: cell-based

Structure (SMILES) | 23S rRNA gene copies in 2.5 μl of the DNA extracts | cell lysis efficiency with varying IL concentration
CC(=O)O.CCn1cc[n+](C)c1 [[C2mim]OAc, 1-Ethyl-3-methylimidazolium acetate] | ~6.48±0.02 | almost steadily decreased with its respective concentration
CCCCCC(=O)[O-].C[N+](C)(C)CCO [[Cho]Hex, Choline hexanoate] | ~6.49±0.11 | slightly improved towards a concentration of 50% (w/v), only decreasing with lower concentrations of 30% (w/v) and 10% (w/v)
